Assays:
[1] = target: T1, Beta-2 adrenergic receptor (Rattus norvegicus, UniProt P10608); assay: Compound was evaluated for its binding affinity towards Beta-2 adrenergic receptor in rat soleus membrane by displacing […]; type: cell membranes
[2] = target: T1, Beta-2 adrenergic receptor
Description: In vitro beta-adrenergic activity against beta-1 adrenergic receptor by the inhibition of insulin stimulated [14C]- glucose incorporation into glycogen in isolated rat soleus muscle

[3] = target: Beta-1 adrenergic receptor (Rattus norvegicus, UniProt P18090); assay: Compound was evaluated for its binding affinity towards Beta-1 adrenergic receptor in rat heart membrane by displacing [125I]- iodocyanopindolol; type: cell membranes
Beta-1 adrenergic receptor, sequence (P18090 whole entry): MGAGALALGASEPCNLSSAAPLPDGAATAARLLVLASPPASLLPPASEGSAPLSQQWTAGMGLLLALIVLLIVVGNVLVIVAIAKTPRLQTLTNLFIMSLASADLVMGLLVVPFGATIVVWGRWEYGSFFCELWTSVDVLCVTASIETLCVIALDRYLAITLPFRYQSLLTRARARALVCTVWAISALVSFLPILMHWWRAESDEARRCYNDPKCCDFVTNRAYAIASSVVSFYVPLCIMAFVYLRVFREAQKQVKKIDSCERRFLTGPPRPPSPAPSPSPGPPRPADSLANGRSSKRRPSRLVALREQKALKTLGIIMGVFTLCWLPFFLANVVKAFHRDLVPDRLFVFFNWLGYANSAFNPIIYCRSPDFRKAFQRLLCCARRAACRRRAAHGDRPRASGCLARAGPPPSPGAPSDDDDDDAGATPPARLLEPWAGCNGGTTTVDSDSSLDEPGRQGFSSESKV

[4] = target: Beta-3 adrenergic receptor (Rattus norvegicus, UniProt P26255); assay: In vitro beta-adrenergic activity against beta-3 adrenergic receptor in rat epididymal fat pads by stimulation of glycerol release from adipocytes.; type: functional, tissue-based, Epididymal fat pad
Beta-3 adrenergic receptor, sequence (P26255 whole entry): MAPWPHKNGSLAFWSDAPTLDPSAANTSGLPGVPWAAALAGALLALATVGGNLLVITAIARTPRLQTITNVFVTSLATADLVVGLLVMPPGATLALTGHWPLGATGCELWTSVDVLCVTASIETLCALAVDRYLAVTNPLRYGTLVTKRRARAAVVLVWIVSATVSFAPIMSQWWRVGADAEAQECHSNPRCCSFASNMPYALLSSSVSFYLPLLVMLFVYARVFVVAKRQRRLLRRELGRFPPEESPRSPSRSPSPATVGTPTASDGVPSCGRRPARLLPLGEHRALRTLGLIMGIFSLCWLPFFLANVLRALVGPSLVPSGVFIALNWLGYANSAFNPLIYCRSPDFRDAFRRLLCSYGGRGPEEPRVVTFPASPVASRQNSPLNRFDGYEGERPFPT

T1 sequence (P10608 whole entry): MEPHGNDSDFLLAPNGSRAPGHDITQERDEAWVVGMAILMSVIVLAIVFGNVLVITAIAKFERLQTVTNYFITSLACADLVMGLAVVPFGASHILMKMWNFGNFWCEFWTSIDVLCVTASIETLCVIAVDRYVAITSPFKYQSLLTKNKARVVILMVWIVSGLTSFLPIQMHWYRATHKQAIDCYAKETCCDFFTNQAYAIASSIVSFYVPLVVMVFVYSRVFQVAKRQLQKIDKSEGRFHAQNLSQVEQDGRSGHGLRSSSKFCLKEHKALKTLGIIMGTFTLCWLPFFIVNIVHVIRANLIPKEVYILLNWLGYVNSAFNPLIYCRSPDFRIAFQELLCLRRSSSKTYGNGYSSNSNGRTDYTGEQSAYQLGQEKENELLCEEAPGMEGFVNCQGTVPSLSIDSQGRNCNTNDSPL

| SMILES | IC50 [1] [nM] | IC50 [2] [nM] | IC50 [3] [nM] | EC50 [4] [nM] |
| --- | --- | --- | --- | --- |
| C[C@H](Cc1ccc(OCC(=O)O)cc1)NC[C@H](O)c1cccc(Cl)c1 | 1300 | 190 |  |  |
| COC(=O)COc1ccc(C[C@@H](C)NC[C@H](O)c2cccc(Cl)c2)cc1 | 30 | 500 | 59 | 16 |

From ChEMBL document CHEMBL1125527, “Disodium (R,R)-5-[2-[[2-(3-chlorophenyl)-2-hydroxyethyl]-amino] propyl]-1,3-benzodioxole-2,2-dicarboxylate (CL 316,243). A potent beta-adrenergic agonist virtually specific for beta 3 receptors. A promising antidiabetic and antiobesity agent” (J Med Chem, 1992)
